Measured values published in PubChem BioAssay (NCI).
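Cells were grown in 96-well plates and exposed to each compound for 48 hours at five concentrations; endpoints were interpolated linearly between bracketing concentrations, or set to the highest concentration if not reached. GI50 marks 50% less growth. TGI: total growth inhibition.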

Key:
Assay in all cases: growth of human tumour cells (NCI), 48 h
DU-145 prostate = system: DU-145 prostate
MALME-3M melanoma = system: MALME-3M melanoma
MDA-MB-231 breast = system: MDA-MB-231 breast
NCI-H226 lung = system: NCI-H226 lung
OVCAR-8 ovarian = system: OVCAR-8 ovarian
SF-539 CNS = system: SF-539 CNS
SK-MEL-5 melanoma = system: SK-MEL-5 melanoma
UACC-62 melanoma = system: UACC-62 melanoma

SMILES | TGI (DU-145 prostate) [µM] | TGI (MALME-3M melanoma) [µM] | TGI (MDA-MB-231 breast) [µM] | TGI (NCI-H226 lung) [µM] | TGI (OVCAR-8 ovarian) [µM] | TGI (SF-539 CNS) [µM] | TGI (SK-MEL-5 melanoma) [µM] | TGI (UACC-62 melanoma) [µM] | GI50 (SK-MEL-5 melanoma) [µM]
S=C1N=C(Cl)/C(=C\c2ccccc2)N1 | > 100 | > 100 | > 100 | > 100 | > 100 | > 100 | > 100 | > 100 | 
N#CC(C#N)=Cn1c(=S)[nH]c2ccccc21 | > 100 | > 100 | > 100 | > 100 | > 100 | > 100 | > 100 | > 100 | 
CCN(CC)CCO/N=C1/C=C2CCC3C(CC[C@@]4(C)C3CC[C@]4(C)O)[C@@]2(C)CC1 (stereo not given in full) | 34.5 | 15.6 | 36 | 10.2 | 20.4 | 14.9 | 26 | 8.57 | 
CCCCNC(=S)/N=C/c1c(O)c2ccccc2[nH]c1=O |  | > 10 | > 10 | > 10 | > 10 | > 10 |  | > 10 | 
CCOP(=O)(OCC)/C(C#N)=C/c1ccnc2ccccc12 | > 100 | > 100 | 58.2 | 55.9 | 52 | 49.2 | 47.8 | 61.4 | 
CC(C)(C)C1CCC2c3c([nH]c4ccccc34)C3C(=O)N(c4ccc5c(c4)C(=O)c4ccccc4C5=O)C(=O)C3C2C1 (stereo not given) | > 100 | > 100 | > 100 | > 100 | > 100 | > 100 | > 100 | > 100 | 
COc1ccc(NC2CC(C)N(C(=O)c3ccccc3)O2)cc1 (stereo not given) | > 10 | > 10 | > 10 |  | > 10 | > 10 | > 10 |  | 
Cc1cc2c(cc1Cl)SC(NNc1ccc([N+](=O)[O-])cc1)=NS2(=O)=O | > 10 | > 10 | > 10 | > 10 | > 10 | > 10 | > 10 | > 10 | 
CC(=O)c1sc(=N)n(-c2c(C)cccc2C)c1C | > 100 | > 100 | > 100 | > 100 |  | > 100 | > 100 | > 100 | 
CCOC(=O)/C(C#N)=C/c1ccc2c(c1)CC1(C2)Cc2cc(CC)c(C(C)O)cc2C1 (stereo not given) | 56.1 | 24.4 | 27.1 | > 64.6 | 44.4 | 22.1 | 16.8 | 29.5 | 
OC(C/C=N/Nc1ccccc1)(C(F)(F)Cl)C(F)(F)Cl | > 10 | > 10 | > 10 | > 10 | > 10 | > 10 | > 10 | > 10 | 
O=C1Oc2cc3c(c4cccc1c24)O[C@H](c1ccccc1)[C@@H](c1ccccc1)[C@@H]3c1ccc(Cl)cc1 | > 100 | > 100 | 52.3 | > 100 | 95.8 | > 100 | > 100 | > 100 | 
CC[C@@H]1/C=C/C=C/C[C@H](C)[C@@H](O)[C@](C)(O)C(=O)[C@H](C)[C@@H](O)[C@H](C)C(=O)[C@H](C)[C@@H](O)[C@H](C)/C=C/C(=O)O[C@H]2[C@@H](C)[C@@H](CC1)O[C@@]1(CC[C@@H](C)[C@@H](CC(C)O)O1)[C@@H]2C (stereo not given in full) | 6.76 | 15.6 | 6.65 |  | 8.85 | 10.3 | 1.7 | 6.57 | 
CC1(C)[C@H]2Cc3cc(-c4cc5c(cn4)[C@@H]4C[C@H]([C@@H]5[C@@H]5c6cc(-c7cc8c(cn7)[C@@H]7C[C@H](C8)C7(C)C)ncc6[C@@H]6C[C@H]5C6(C)C)C4(C)C)ncc3[C@@H]1C2 | > 100 | > 100 | > 100 | > 100 | > 100 |  | > 100 | > 100 | 
CN(C)CC1CN=C(NC(=O)Nc2ccccc2)O1 (stereo not given) | > 100 | > 100 | > 100 | > 100 | > 100 | > 100 | > 100 | > 100 | 
COC(=O)c1c(-c2ccccc2)c2sc3ccccc3n2c1N | > 100 | 68.1 | > 100 | > 100 | > 100 | > 100 | > 100 | > 100 | 
O=c1[nH]n(Cc2ccccc2Cl)c2ccccc12 | > 100 | > 100 | > 100 | > 100 | > 100 | > 100 | > 100 | > 100 | 
FC1=C2CCCCCC2SC1(F)F (stereo not given) | > 100 | 52.4 | > 100 | > 100 | > 100 |  | > 100 | > 100 | 
CC1(C)O[C@@H](CBr)C[C@H](C[C@H]2C[C@@H](O)C[C@@H](CCOCc3ccccc3)O2)O1 | 61.8 | 35.1 | > 100 | 35.5 | 47.7 |  | > 100 | 34.4 | 
COCCOC(=O)C(C)=[N+]=[N-] | > 100 | > 100 | > 100 | > 100 | > 100 |  | > 100 | > 100 | 
CC(=O)c1cc(C)n2c1CS[C@@H]2c1ccccc1 | 93.6 | > 100 | > 100 | > 100 | > 100 |  | > 100 |  | 
Cc1ccc2c(=O)cc(-c3sc4ccccc4c3C)[nH]c2n1 | 65.9 | 41.6 | > 100 | 81.3 | 56.3 |  | 28.2 | 36.3 | 14.9
O=C1c2ccccc2-c2c1c(-c1cccc(Br)c1)nc1ccc3ccccc3c21 | > 100 | > 100 | > 100 | > 100 | > 100 | > 100 |  | > 100 | 
CC(C)(C)OC(=O)N(CCCCNCc1ccc2ccccc2c1)CCCNCc1ccc2ccccc2c1 | 3.1 |  | 2.28 | 3.08 | 3.08 | 2.97 |  | 3.08 | 
CC#CC(O)(C(=O)OC1CC2CCC(C1)N2C)C1CCCC1 (stereo not given) | > 100 |  | > 100 | > 100 | > 100 | > 100 | > 100 | > 100 | 
COc1ccc(N=[N+]([O-])c2ccc(OC)cc2)cc1 | > 100 | > 100 | > 100 |  | > 100 |  | > 100 | > 100 | 
